Reference: patent publication US20120232049A1, “PYRIDINE OR PYRIMIDINE DERIVATIVE HAVING EXCELLENT CELL GROWTH INHIBITION EFFECT AND EXCELLENT ANTI-TUMOR EFFECT ON CELL STRAIN HAVING AMPLIFICATION OF HGFR GENE” (Eisai R&D Management Co., Ltd., priority 2007, published 2012)

Columns and labels:
[1] = tested on: SNU-5 (human gastric cancer cells); assay: Proliferation inhibitory effect against human cancer cells, SNU-5; format: cell-based; conditions: SNU-5, 72 h, c-met amplified cell, 3 days, Cell Counting Kit-8
Experimental: (§1) Six kinds of human cancer cells are suspended in RPMI1640 medium (purchased from Sigma) containing 10% FBS, respectively. The cell suspensions (MKN-45: 1.5×10^4 cells/ml, SNU-5: 5×10^4 cells/ml, EBC-1: 3×10^4 cells/ml, MKN-74: 2.5×10^4 cells/ml, SNU-1: 2.5×10^4 cells/ml, A549: 1.5×10^4 cells/ml) were added to a cell culture 96-well plate (purchased from NUNC, product number: 167008) at 0.1 ml/well, and cultured overnight in a 5% CO2 incubator (37° C.). After the culture, 0.1 ml of a test substance diluted with RPMI1640 medium containing 10% FBS and the culture was continued for 3 days in a 5% CO2 incubator (37° C.). After the culture, 10 μl of Cell Counting Kit-8 (purchased from DOJINDO, product number: 343-07623) was added to each well and the incubation was performed for 0.5 to 3 hours in a 5% CO2 incubator (37° C.). After the incubation, absorbance of each well was measured by a plate reader MTP-500 (Corona Electric Co., Ltd.) with measurement wavelength 450 nm and reference wavelength 660 nm.

[2] = tested on: MKN-74 (human gastric cancer cells); assay: Proliferation inhibitory effect against human cancer cells, MKN-74; format: cell-based; conditions: MKN-74, 72 h, c-met non-amplified cell, 3 days, Cell Counting Kit-8
Experimental: as §1

[3] = tested on: A549 (human lung cancer cells); assay: Proliferation inhibitory effect against human cancer cells, A549; format: cell-based; conditions: A549, 72 h, c-met non-amplified cell, 3 days, Cell Counting Kit-8
Experimental: as §1

[4] = tested on: EBC-1 (human lung cancer cells); assay: Proliferation inhibitory effect against human cancer cells, EBC-1; format: cell-based; conditions: EBC-1, 72 h, c-met amplified cell, 3 days, Cell Counting Kit-8
Experimental: as §1

[5] = tested on: SNU-1 (human gastric cancer cells); assay: Proliferation inhibitory effect against human cancer cells, SNU-1; format: cell-based; conditions: SNU1, 72 h, c-met non-amplified cell, 3 days, Cell Counting Kit-8
Experimental: as §1

[6] = tested on: Human gastric cancer cells (MKN-45); assay: Tumor proliferation inhibitory effect against human cancer cells (MKN-45), subcutaneous transplant; format: in vivo, BALB/c(nu/nu) mice; conditions: orally twice a day, fifth day
Experimental: Human gastric cancer cells (MKN-45) were suspended in HBSS (purchased from GIBCO BRL). The cell suspension (5×10^7 cells/ml; 0.1 ml) was transplanted to the subcutaneous parts of the right flank of 7-week female BALB/c(nu/nu) mice. When the tumor volume reached 100-200 mm^3, mice were grouped so that the average of the tumor volume was equable in each group, and 0.5% methylcellulose in hydrochloric acid-glucose solution (0.1N hydrochloric acid:5% glucose solution=1:9) or a test substance suspended in dimethylsulfoxide-Tween-glucose solution (dimethylsulfoxide:Tween:5% glucose solution (containing equimolar hydrochloric acid of the test substance)=7:13:80) was orally administered to mice daily twice a day. The tumor volume was measured on the fifth day from the administration of the test substance. The long and short diameters of the tumor were measured with a caliper and the tumor volume was calculated according to the equation: 1/2×long diameter×short diameter×short diameter. The experiment was conducted in a control group (vehicle administered group) of 10 animals as well as in the test substance administered group of 5 animals. Tumor proliferation rate (%) was defined as the ration of the tumor volume of the test substance administered group to the tumor volume of control group and shown in table 9

[7] = tested on: MKN-45 (human gastric cancer cells); assay: Proliferation inhibitory effect against human cancer cells, MKN-45; format: cell-based; conditions: MKN-45, 72 h, c-met amplified cell, 3 days, Cell Counting Kit-8
Experimental: as §1

[8] = 12.5 mg/kg weight/administration
[9] = 100 mg/kg weight/administration

Row | IC50 [1] [nM] | IC50 [2] [nM] | IC50 [3] [nM] | IC50 [4] [nM] | IC50 [5] [nM] | IC50 [7] [nM] | SMILES | tumor proliferation rate(%) [6, 8] [%] | tumor proliferation rate(%) ([6]; 1 mg/kg weight/administration) | tumor proliferation rate(%) ([6]; 3 mg/kg weight/administration) | tumor proliferation rate(%) ([6]; 10 mg/kg weight/administration) | tumor proliferation rate(%) ([6]; 30 mg/kg weight/administration) | tumor proliferation rate(%) [6, 9] [%]
1 | 38 | 4200 | > 10000 | 65 | > 10000 | 60 | O=C(Nc1cc(Oc2ccc(NC(=O)C3(C(=O)Nc4ccc(F)cc4)CC3)c(F)c2)ccn1)N1CCC1 [Example 61, N-[4-({2-[(Azetidin-1-ylcarbonyl)amino]pyridin-4-yl}oxy)-2-fluorophenyl]-N′-(4-fluorophenyl)cyclopropane-1,1-dicarboxamide] | 35.8 | – | – | – | – | –
2 | 1.7 | 2000 | 2900 | 3.8 | 2300 | 3.8 | CN1CCN(C2CCN(C(=O)Nc3cc(Oc4cc(F)c(NC(=O)C5(C(=O)Nc6ccc(F)cc6)CC5)cc4F)ccn3)CC2)CC1 [Example 92, N-(2,5-Difluoro-4-{[2-({[4-(4-methylpiperazin-1-yl)piperidin-1-yl]carbonyl}amino)pyridin-4-yl]oxy}phenyl)-N′-(4-fluorophenyl)cyclopropane-1,1-dicarboxamide] | 27.9 | – | – | – | – | –
3 | 1.7 | 1900 | 1800 | 2.4 | 1600 | 2.3 | CN1CCC(N(C)C(=O)Nc2cc(Oc3cc(F)c(NC(=O)C4(C(=O)Nc5ccc(F)cc5)CC4)cc3F)ccn2)CC1 [Example 94, N-(2,5-Difluoro-4-{[2-({[methyl(1-methylpiperidin-4-yl)amino]carbonyl}amino)pyridin-4-yl]oxy}phenyl)-N′-(4-fluorophenyl)cyclopropane-1,1-dicarboxamide] | – | – | – | – | – | –
4 | 6 | 3000 | 1900 | 6.4 | 2000 | 6 | O=C(Nc1cc(Oc2cc(F)c(NC(=O)C3(C(=O)Nc4ccc(F)cc4)CC3)cc2F)ccn1)N1CC(O)C1 [Example 91, N-{2,5-Difluoro-4-[(2-{([3-hydroxyazetidin-1-yl)carbonyl]amino}pyridin-4-yl)oxy]phenyl}-N′-(4-fluorophenyl)cyclopropane-1,1-dicarboxamide] | 22.9 | 73.0 | 55.5 | 27.4 | 19.6 | 16.0
5 | 6.2 | 4300 | 2600 | 17 | 4200 | 15 | CN1CCN(C2CCN(C(=O)Nc3cc(Oc4ccc(NC(=O)C5(C(=O)Nc6ccc(F)cc6)CC5)c(F)c4)ccn3)CC2)CC1 [Example 15, N-(2-Fluoro-4-{[2-({[4-(4-methylpiperazin-1-yl)piperidin-1-yl]carbonyl}amino)pyridin-4-yl]oxy}phenyl)-N-(4-fluorophenyl)cyclopropane-1,1-dicarboxamide] | – | – | – | – | 29.7 | 19.9
6 | 4.9 | 3300 | 2000 | 4.5 | 3600 | 4.7 | O=C(Nc1cc(Oc2cc(F)c(NC(=O)C3(C(=O)Nc4ccc(F)cc4)CC3)cc2F)ccn1)N1CC(CO)C1 [Example 96, N-(2,5-Difluoro-4-{[2-({[3-(hydroxymethyl)azetidin-1-yl]carbonyl}amino)pyridin-4-yl]oxy}phenyl)-N′-(4-fluorophenyl)cyclopropane-1,1-dicarboxamide] | – | – | – | – | – | –
